Test results as given in patent US4968708A, “Imidazo[2,1-B]benzothiazole compounds and antiulcer compositions containing the same” (priority 1988, dated 1990).

Legend:
ddy strain male mice = assay: Acute toxicity; format: in vivo; details: 7 days observation
Experimental: (§1) A suspension of each test compound in a 5% gum arabic aqueous solution was orally given to ddy strain male mice (at the age of 4 to 5 weeks, weighing 25 to 35 g; 2 to 9 mice in one group). For 7 days after the administration, the mice were observed as to if they were dead or alive. Based on the number of deaths, the LD50 value was determined by the Probit method.

Acute toxicity = format: in vivo; details: mouse, in vivo, po; mice, 7 days observation, Probit method
Experimental: as §1

aspirin-induced ulcer = assay: Antiulcer activity against aspirin-induced ulcer model; format: in vivo, Wistar strain male rats; details: rats, 100 mg/kg p.o. 30 min before aspirin 200 mg/kg p.o.; for inhibition in vivo at 100 mg/kg: Rattus norvegicus, po, 7 h, read-out: Aspirin Induced Ulcer Inhibition Rate; for Aspirin Induced Ulcer Ulcer Index: stomach excised 7 h after aspirin
Experimental: Thirty minutes after administration, aspirin was further orally administered at a dose of 200 mg/kg. Seven hours after administration of aspirin, the stomach was excised under ethereal anesthesia and spotted and linear erosion and a long diameter of any ulcer were microscopically measured to determine an ulcer index and an inhibition rate.
(§2) In the control group, a 5% gum arabic aqueous solution was orally administered at a dose of 5 ml/kg.

ethanol-induced ulcer = assay: Antiulcer activity against ethanol-induced ulcer model; format: in vivo, Wistar strain male rats; details: rats, 100 mg/kg p.o. 30 min before absolute ethanol 5 ml/kg p.o.; for Ethanol Induced Ulcer Ulcer Index: stomach excised 1 h later; for Ethanol Induced Ulcer Inhibition Rate: vs control group
Experimental: A suspension of each test compound in a 5% gum arabic aqueous solution was orally given to Wistar strain male rats (at the age of 7 to 8 weeks, weighing 180 to 250 g; 5 rats in the group administered with the test compound; 9 rats in the control group) fasted for […] at a dose of 100 mg of any the test compound/5 ml/kg. Thirty minutes after administration, absolute ethanol was further orally administered at a dose of 5 ml/kg. One hour after administration of absolute ethanol, the stomach was excised under ethereal anesthesia and spotted and linear erosion and a long diameter of ulcer were microscopically measured to determine an ulcer index and an inhibition rate.
as §2

gastric juice secretion = assay: Gastric juice secretion inhibition activity (pyloric ligature); format: in vivo, Wistar strain male rats; details: rats, 100 mg/kg p.o.; for inhibition in vivo at 100 mg/kg: Rattus norvegicus, po, read-out: Volume Inhibition Rate; for Volume (gastric juice): pyloric ligature 30 min later, gastric juice collected after 4 h; for pH (gastric juice): first part of Table 5
Experimental: A suspension of each test compound in a 5% gum arabic aqueous solution was orally given to Wistar strain male rats (at the age of 7 to 8 weeks, weighing 180 to 250 g; 7-9 rats in the group administered with the test compound; 14-17 rats in the control group) fasted for 24 hours at a dose of 100 mg of the test compound/5 ml/kg. Thirty minutes after administration, pyloric ligature was made under ethereal anesthesia. Four hours thereafter, the stomach was excised under ethereal anesthesia to collect gastric juice. The collected gastric juice was centrifuged (2500 rpm) at 4° C. for 10 minutes. After the supernatant was collected, the amount of the gastric juice and its pH were measured using a pH meter. Furthermore, the amount of free hydrochloric acid and the total acidity were measured with Topfer reagent and phenolphthalein reagent, respectively. Using a part of the gastric juice, pepsin output in the gastric juice was measured using casein as a substrate in a manner similar to the method of Anson et al.
as §2

[1] = test system: water-immersion stress ulcer; assay: Antiulcer activity against water-immersion stress ulcer; format: in vivo, Wistar strain male rats; details: rats; for inhibition in vivo at 100 mg/kg: Rattus norvegicus, po, 6 h, read-out: Water-Immersion Stress Ulcer Inhibition Rate; for Water-Immersion Stress Ulcer Ulcer Index: 100 mg/kg p.o. 30 min before 6 h water immersion at 22°±1° C.
Experimental: A suspension of each test compound in a 5% gum arabic aqueous solution was orally given to Wistar strain male rats (at the age of 7 to 8 weeks, weighing 180 to 250 g; 7-9 rats in the group administered with the test compound; 10-16 rats in the control group) fasted for 24 hours at a dose of 100 mg of the test compound/5 ml/kg. Thirty minutes after administration, the animal was immersed in a water bath at 22°±1° C. up to the xiphisternum using a stress cage made by Tokyo University, Faculty of Pharmacology, to apply a stress load for 6 hours. After applying the stress load, the rats had the cervical vertebra dislocated to death. Then, the stomach was excised and, spotted and linear erosion and a long diameter of any ulcer were microscopically measured to determine an ulcer index and an inhibition rate.
as §2

[2] = 4 h, pyloric ligature, 4 h, vs control group
[3] = 100 mg/kg p.o. 30 min before 6 h water immersion, vs control group

Row | SMILES | Mortality (No. death/No. treated) (ddy strain male mice; 2000 mg/kg p.o) | Mortality (No. death/No. treated) (ddy strain male mice; 2828 mg/kg p.o) | LD50 at 168 h (Acute toxicity) | inhibition in vivo at 100 mg/kg (aspirin-induced ulcer; vs control group) | Aspirin Induced Ulcer Ulcer Index (aspirin-induced ulcer) | Ethanol Induced Ulcer Ulcer Index (ethanol-induced ulcer) | Ethanol Induced Ulcer Inhibition Rate (ethanol-induced ulcer) | inhibition in vivo at 100 mg/kg (gastric juice secretion; [2]) | Volume (gastric juice) (gastric juice secretion) | Acidity (gastric juice secretion; pyloric ligature, 4 h) | Free HCl (gastric juice secretion; pyloric ligature, 4 h) | Pepsin Activity (gastric juice secretion; pyloric ligature, 4 h) | Pepsin Output (gastric juice secretion; pyloric ligature, 4 h) | pH (gastric juice) (gastric juice secretion; pyloric ligature, 4 h) | inhibition in vivo at 100 mg/kg [1, 3] | Water-Immersion Stress Ulcer Ulcer Index [1] | other results
1 | Cc1nc2sc3ccccc3n2c1CO [Example 1, 2-Methylimidazo[2,1-b]benzothiazole-3-methanol] | 0/4 | 1/5 | 3590 mg/kg | 59.4% | 23.3 ± 5.1 mm^2 | 4.9 ± 2.6 mm^2 | 94.3% | 52.5% | 2.8 ± 0.4 mL | 49.0 ± 5.9 mEq/l | 9.4 ± 3.1 mEq/l | 90.3 ± 5.9 units/ml | 59.6 ± 6.8 units/hr | 2.94 ± 0.30 | 80% | 4.3 ± 0.9 mm^2 | Mortality (No. death/No. treated) (ddy strain male mice; 4000 mg/kg p.o): 3/5; Mortality (No. death/No. treated) (ddy strain male mice; 4899 mg/kg p.o): 2/2
2 | Cc1nc2sc3ccccc3n2c1CO.Cl [Example 2, 2-Methylimidazo[2,1-b]benzothiazole-3-methanol hydrochloride] |  |  | 2130 mg/kg |  | 36.0 ± 5.8 mm^2 |  |  |  | 2.8 ± 0.4 mL | 77.3 ± 4.5 mEq/l | 15.8 ± 4.5 mEq/l | 91.1 ± 8.3 units/ml | 58.4 ± 5.2 units/hr | 2.43 ± 0.20 |  | 4.6 ± 1.1 mm^2 | Mortality (No. death/No. treated) (ddy strain male mice; 1732 mg/kg p.o): 0/5; Mortality (No. death/No. treated) (ddy strain male mice; 2041 mg/kg p.o): 2/4; Mortality (No. death/No. treated) (ddy strain male mice; 2236 mg/kg p.o): 3/5; Mortality (No. death/No. treated) (ddy strain male mice; 2449 mg/kg p.o): 4/5; Aspirin Induced Ulcer Inhibition Rate (aspirin-induced ulcer; vs control group): 46.1%; Volume Inhibition Rate (gastric juice secretion; pyloric ligature, 4 h, vs control group): 53.3%; Water-Immersion Stress Ulcer Inhibition Rate [1, 3]: 80.3%
3 | CCc1nc2sc3ccccc3n2c1CO [Example 8, 2-Ethylimidazo[2,1-b]benzothiazole-3-methanol] |  |  |  |  |  | 4.1 ± 2.2 mm^2 | 95.2% |  |  |  |  |  |  |  | 50.3% | 8.1 ± 2.2 mm^2 | 
4 | COCc1c(C)nc2sc3ccccc3n12 [Example 12, 2-Methylimidazo[2,1-b]benzothiazole-3-methanol methyl ether] | 6/9 | 6/6 | 1770 mg/kg | 34.5% | 49.9 ± 5.4 mm^2 |  |  | 60.3% | 2.5 ± 0.1 mL | 66.7 ± 4.7 mEq/l | 23.2 ± 6.9 mEq/l | 90.7 ± 4.1 units/ml | 55.5 units/hr | 2.28 ± 0.26 | 83.3% | 2.2 ± 0.4 mm^2 | Mortality (No. death/No. treated) (ddy strain male mice; 1414 mg/kg p.o): 1/5
